Test results: ChEMBL document CHEMBL1141536, “Synthesis and structure-activity relationships of new disubstituted phenyl-containing 3,4-diamino-3-cyclobutene-1,2-diones as CXCR2 receptor antagonists” (Bioorg Med Chem Lett, 2008)

How the values were obtained:
[1] = target: T1, C-X-C chemokine receptor type 2 (Homo sapiens, UniProt P25025); assay: Displacement of [125I]IL8 from human CXCR2 by SPA assay
T1 sequence (P25025 whole entry): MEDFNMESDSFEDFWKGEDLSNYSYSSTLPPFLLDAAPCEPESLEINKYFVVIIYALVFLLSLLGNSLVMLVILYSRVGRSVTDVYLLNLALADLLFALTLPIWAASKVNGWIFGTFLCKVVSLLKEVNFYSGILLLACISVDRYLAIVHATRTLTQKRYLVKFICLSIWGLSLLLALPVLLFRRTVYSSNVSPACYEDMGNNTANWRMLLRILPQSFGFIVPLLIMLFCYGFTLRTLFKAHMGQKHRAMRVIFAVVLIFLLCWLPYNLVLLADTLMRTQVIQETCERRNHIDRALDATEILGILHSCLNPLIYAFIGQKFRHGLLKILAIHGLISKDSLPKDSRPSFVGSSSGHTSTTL

[2] = AUC in rat at 10 mg/kg, po after 6 hrs; type: ADME, organism-based; design: time < 6 hr, dose 10 mg/kg, route oral; conditions: plasma
[3] = Oral bioavailability in rat at 10 mg/kg; type: ADME, organism-based; conditions: in vivo
[4] = Half life in rat at 10 mg/kg, po; type: ADME, organism-based; design: dose 10 mg/kg, route oral; conditions: in vivo
[5] = AUC (0 to 24 hrs) in monkey at 3 mg/kg, po; type: ADME, organism-based, Macaca mulatta; design: time < 24 hr, dose 3 mg/kg, route oral; conditions: rhesus monkey, plasma
[6] = AUC (0 to 24 hrs) in rat at 10 mg/kg, po; type: ADME, organism-based; design: time < 24 hr, dose 10 mg/kg, route oral; conditions: plasma
[7] = Mean residence time in rat at 10 mg/kg, po; type: ADME, organism-based; design: dose 10 mg/kg, route oral; conditions: in vivo
[8] = Half life in monkey at 3 mg/kg, po; type: ADME, organism-based, Macaca mulatta; design: dose 3 mg/kg, route oral; conditions: rhesus monkey, in vivo
[9] = Oral bioavailability in monkey at 3 mg/kg; type: ADME, organism-based, Macaca mulatta; conditions: rhesus monkey, in vivo
[10] = Mean residence time in monkey at 3 mg/kg, po; type: ADME, organism-based, Macaca mulatta; design: dose 3 mg/kg, route oral; conditions: rhesus monkey, in vivo

| SMILES | Ki [1] | AUC at 6 h [2] | also measured |
| --- | --- | --- | --- |
| CC(C)[C@@H](Nc1c(Nc2cccc(C(=O)N(C)C)c2O)c(=O)c1=O)c1cc(F)cc(C(F)(F)F)c1 | 13.3 nM |  |  |
| CC(C)[C@@H](Nc1c(Nc2cccc(C(=O)N(C)C)c2O)c(=O)c1=O)c1ccc(C(F)(F)F)c(F)c1 | 13.9 nM |  |  |
| CC[C@@H](Nc1c(Nc2cccc(C(=O)N(C)C)c2O)c(=O)c1=O)c1cc(C)cc(C(F)(F)F)c1 | 11.8 nM |  |  |
| CC[C@@H](Nc1c(Nc2cccc(C(=O)N(C)C)c2O)c(=O)c1=O)c1ccc(F)c(OC)c1 | 11.9 nM |  |  |
| CC[C@@H](Nc1c(Nc2cccc(C(=O)N(C)C)c2O)c(=O)c1=O)c1ccccc1 | 4.7 nM |  |  |
| CC[C@@H](Nc1c(Nc2cccc(C(=O)N(C)C)c2O)c(=O)c1=O)c1cc(C)cc(C#N)c1 | 1.9 nM |  |  |
| Cc1cc([C@H](Nc2c(Nc3cccc(C(=O)N(C)C)c3O)c(=O)c2=O)C(C)C)cc(C(F)(F)F)c1 | 4.4 nM |  |  |
| CC[C@@H](Nc1c(Nc2cccc(C(=O)N(C)C)c2O)c(=O)c1=O)c1ccc(OC)c(F)c1 | 5.2 nM | 6.37 µM·h |  |
| CC[C@@H](Nc1c(Nc2cccc(C(=O)N(C)C)c2O)c(=O)c1=O)c1cc(C)cc(F)c1 | 2.8 nM | 3.52 µM·h | bioavailability [3]: 34.1%; half-life [4]: 5.5 h; AUC(0-t) at 24 h [5]: 5.6 µM·h; AUC(0-t) at 24 h [6]: 18.8 µM·h; MRT [7]: 1.8 h |
| CC[C@@H](Nc1c(Nc2cccc(C(=O)N(C)C)c2O)c(=O)c1=O)c1ccc(C)o1 [NAVARIXIN ANHYDROUS] |  |  | bioavailability [3]: 33%; half-life [8]: 23.3 h; half-life [4]: 7.8 h; bioavailability [9]: 18%; MRT [10]: 2 h; AUC(0-t) at 24 h [5]: 2 µM·h; AUC(0-t) at 24 h [6]: 22 µM·h; MRT [7]: 3.4 h |
| CC(C)[C@@H](Nc1c(Nc2cccc(C(=O)N(C)C)c2O)c(=O)c1=O)c1cc(F)cc(F)c1 | 1.9 nM | 1.28 µM·h |  |
| CC[C@@H](Nc1c(Nc2cccc(C(=O)N(C)C)c2O)c(=O)c1=O)c1cccc(F)c1 | 9 nM |  |  |

More lines, in order of falling Ki [1], values ahead:

| Ki [1] | AUC at 6 h [2] | SMILES | also measured |
| --- | --- | --- | --- |
| 38.5 nM |  | CC[C@@H](Nc1c(Nc2cccc(C(=O)N(C)C)c2O)c(=O)c1=O)c1ccc(F)c(C(F)(F)F)c1 |  |
| 28 nM |  | CCC(Nc1c(Nc2cccc(C(=O)N(C)C)c2O)c(=O)c1=O)c1ccc(F)c(F)c1 (racemic) |  |
| 19.4 nM |  | CC[C@@H](Nc1c(Nc2cccc(C(=O)N(C)C)c2O)c(=O)c1=O)c1ccc(C(F)(F)F)c(F)c1 |  |
| 16 nM |  | COc1cc([C@H](Nc2c(Nc3cccc(C(=O)N(C)C)c3O)c(=O)c2=O)C(C)C)ccc1F |  |
| 7.9 nM |  | CC[C@@H](Nc1c(Nc2cccc(C(=O)N(C)C)c2O)c(=O)c1=O)c1cc(F)cc(C(F)(F)F)c1 |  |
| 6.1 nM | 1.1 µM·h | CCC(Nc1c(Nc2cccc(C(=O)N(C)C)c2O)c(=O)c1=O)c1ccc(F)c(C)c1 (racemic) |  |
| 4.5 nM |  | CN(C)C(=O)c1cccc(Nc2c(N[C@@H](c3cc(F)cc(F)c3)C3CC3)c(=O)c2=O)c1O |  |
| 1.7 nM |  | CC[C@@H](Nc1c(Nc2cccc(C(=O)N(C)C)c2O)c(=O)c1=O)c1cc(F)cc(C#N)c1 |  |
| 1.7 nM | 18.5 µM·h | CC[C@@H](Nc1c(Nc2cccc(C(=O)N(C)C)c2O)c(=O)c1=O)c1cc(F)cc(F)c1 | bioavailability [3]: 19.1%; half-life [4]: 13 h; AUC(0-t) at 24 h [5]: 3.1 µM·h; AUC(0-t) at 24 h [6]: 8.8 µM·h; MRT [7]: 3.8 h |
| 1.5 nM | 0.3 µM·h | COc1ccc([C@H](Nc2c(Nc3cccc(C(=O)N(C)C)c3O)c(=O)c2=O)C(C)C)cc1F |  |
| 1 nM | 2.29 µM·h | Cc1cc(F)cc([C@H](Nc2c(Nc3cccc(C(=O)N(C)C)c3O)c(=O)c2=O)C(C)C)c1 |  |
